Laboratory results: PMC5838563, “Compounds producing an effective combinatorial regimen for disruption of HIV‐1 latency” (EMBO Molecular Medicine, 2017)
Read-outs that look alike come from different tables or passages of the source.

Tests used:
[1] = system: HIV‐1 LTR (Jurkat^Tat LTR‐DsRed clone #11); test: mdHIV LTR‐DsRed reporter assay, clone #11; type: cell-based; settings: PMA stimulation, of eGFP expressing cells
From the text: HIV‐1 tends to integrate into actively transcribed regions of the host genome (Jordan et al, 2003; Lewinski et al, 2006; Ikeda et al, 2007). Each HIV‐1‐infected patient carries viral DNA integrated at different chromosomal locations, and as we have previously shown, the site of viral integration influences how latently infected T cells respond to different stimuli (Hashemi et al, 2016). Therefore, an ideal LRA should be capable of disrupting latency in cell models carrying integrated viral reporters at multiple different regions within the host genome. To assess this capability for the PH compounds, we used two additional previously described cell lines, designated Jurkat^Tat LTR‐DsRed clones #11, and #131, that carry a mini‐dual fluorescent HIV‐1 LTR reporter (mdHIV) at different chromosomal locations. The minivirus mdHIV has two fluorescent reporters in which DsRed expression is driven from the 5′ LTR, and eGFP is constitutively expressed from an internal EIF‐1α promoter (Fig 5A). […]
Figure 5 Effect of PH02 on HIV provirus integrated at different chromosomal locations • A The effect of PH compounds was analyzed using clonal lines bearing single‐copy integrations of the mini‐dual fluorescent HIV‐1 LTR reporter, md‐HIV, where GFP is constitutively expressed from the EIF‐1α internal promoter, and DsRed from the 5′ LTR. • B Fluorescence‐activated cell sorting (FACS) of cells bearing md‐HIV provirus indicates expression of EIF‐1α‐GFP and LTR‐dsRed. Stimulation of the md‐HIV lines generally causes a shift of the fluorescence profile from GFP^+/DsRed^− toward GFP^+/DsRed^+. • C, D Clone 11 or clone 131 was treated with the indicated concentrations of PH02 (left panels) or PH02 in combination with 10 nM PEP005 (right panels) for 24 h and cells analyzed by flow cytometry. Results presented as Δmean fluorescence intensity (ΔMFI) of DsRed expression and fold increase in DsRed expression for solo and combination treatments, respectively. Mean and SE are determined from three biological replicates (n = 3) and technical duplicates. […]

[2] = system: latent HIV‐1 provirus in resting CD4^+ T cells from HIV‐1‐infected patients; test: Supernatant HIV‐1 RNA from resting CD4+ T cells of patients (RT–qPCR); type: cell-based; settings: 24 h
Procedure: For this analysis, we purified resting CD4^+ (rCD4^+) T lymphocytes from pools of patient samples by two‐step negative selection (Appendix Table S3). […] Purified rCD4^+ T cells were treated with 30 μM of each PH compound for 24 h, and RNA from the culture supernatants was analyzed by one‐step RT–qPCR, where results are presented as copy numbers of the virion/ml. […] Based on its capability for reactivating latent provirus at multiple chromosomal locations in cell lines, its negligible toxic effect, and that it produces the most robust reactivation of virus from patient samples, we focused our subsequent analysis on this compound (Table 1).
Figure 8 Effect of PH compounds on expression of HIV provirus in latently infected cells from patients Resting CD4^+ T cells purified from patient samples (n = 18, Appendix Table S3) were treated with 30 μM of each PH compound for 24 h, and HIV‐1 RNA was measured in culture supernatants. Results are presented as HIV virions/ml (mean ± SE). LOD indicates the limit of detection, 100 copies/ml culture supernatant. TEXT PRINTED IN THE PICTURE: PMA: Supernatant HIV-1 mRNA (Copies/ml): 308929.80 (50 nM) | PH01: Supernatant HIV-1 mRNA (Copies/ml): 5348.04 (Single Concentration (30μM)) | PH02: Supernatant HIV-1 mRNA (Copies/ml): 17624.53 (Single Concentration (30μM)) | PH03: Supernatant HIV-1 mRNA (Copies/ml): 4714.11 (Single Concentration (30μM)) | PH04: Supernatant HIV-1 mRNA (Copies/ml): 7134.68 (Single Concentration (30μM)) | PH05: Supernatant HIV-1 mRNA (Copies/ml): 587.19 (Single Concentration (30μM))
HIV‐1 RNA was measured from 1 × 10^6 resting CD4^+ T lymphocytes treated with 30 μM of each compound. Extracellular RNA was isolated using the ZR Viral RNA Kit (Zymo Research) and total cellular mRNA using the RNeasy MinElute cleanup kit (Qiagen). HIV‐1 RNA concentrations were assayed in one‐step RT–qPCRs using the iTaq™ universal SYBR Green one‐step kit (BIO‐RAD) with the HIV‐1 LTR‐specific primers, AGCCGCCTAGCATTTCATC and […]. RNA copy number was calculated using a standard curve generated from titrated infections with RGH‐PGK virus (Dahabieh et al, 2013). Reproducibility of RT–qPCR analysis was confirmed using a second set of primers within HIV‐1 p24 Gag, AGCAGCCATGCAAATGTTA, […]. HIV‐1 RNA determinations were normalized to GAPDH RNA measured using the primers […] and […].

[3] = system: HIV‐1 LTR (Jurkat^Tat LTR‐luciferase cell line); test: Jurkat^Tat LTR‐luciferase reporter assay for HIV‐1 latency reversal; type: cell-based; settings: for EC50: Human immunodeficiency virus 1, 24 h treatment, percent activation relative to PMA; for latency‐reversing activity of PH02 analogs compared with PH02: 24 h, also in Jurkat^Tat LTR‐DsRed clones #11 and #131
Procedure: Activity of compounds identified for latency‐reversing activity in the primary screens was further validated by examining the effect of a single concentration (7 μM) on an alternative reporter cell line, bearing an integrated HIV‐1 reporter virus where luciferase expression is produced from the 5′ LTR, in cells constitutively expressing the viral TAT protein (Fig 2A), referred to as Jurkat^Tat LTR‐luciferase. Importantly, this cell line has the HIV‐1 reporter virus integrated at a different chromosomal location than that of the A1 J‐Lat cell line and also enables validation of provirus reactivation with a second enzymatic luciferase assay. In these assays, after 24‐h treatment we observed 10 compounds that produced significant induction of luciferase activity, including two compounds from the KD2 library, three from the CCBN library and five compounds from the DIVERSet. Compounds that produced significant effects in these secondary assays were re‐ordered from their respective suppliers and examined in more detail using the HIV‐luciferase reporter cell line. […] These five compounds represent diverse chemical structures (Fig 2G).
Figure 2 Concentration–response analysis for five selected PH compounds • A Schematic representation of the pTY‐LAI‐luciferase reporter virus used in secondary screening assays, where luciferase expression is under the control of the 5′ LTR, in cloned lines derived from Jurkat^TAT cells bearing single‐copy integrants. • B–F Luciferase activity was measured from reporter cells treated for 24 h with the indicated compound concentrations. Results are presented as percent activation relative to PMA‐treated controls. The EC50 for each compound is indicated. Mean and standard error (SE) for the results are determined from three biological replicates (n = 3) and technical duplicates. • G Illustration of chemical structures of the PH compounds.
Luciferase assays were performed in 96‐well plate format, where 100 μl of cell culture containing 1 × 10^5 luciferase reporter cells was plated per well. After the indicated time of treatment, 100 μl of luciferase assay reagent (SuperlightTM luciferase reporter Gene Assay Kit; BioAssay Systems) was added per well, and incubated for 2 min at RT, when luciferase activity was measured on a VictorTM X3 Multilabel Plate Reader. Results were presented relative to the positive control samples treated with 50 nM PMA. T‐cell activation was measured using 1 × 10^5 wild‐type Jurkat^Tat cells or PBMCs purified from healthy donors, treated as indicated. After 24 h, cells were incubated with 2.4G2 antibody to block nonspecific binding and further stained with 5 μl of anti‐human CD69 or an IgG1 isotype control antibody conjugated with PE‐Cy^Tm7. After 30‐min incubation on ice, the cells were washed twice with PBS and analyzed using a Becton Dickinson LSRII flow cytometer (BD Biosciences) to determine mean fluorescence intensity (MFI), using FlowJo software. The mean fluorescence intensity (MFI) obtained from cells stained with IgG isotype antibody control was subtracted from that from cells stained with CD69 to compensate for background (MFICD69‐MFIIgG). IL‐2 production was measured in cell culture supernatants using a human IL‐2 ELISA System (eBioscience). Jurkat^Tat clones bearing integrations of the mini‐dual HIV reporter virus, clone #11 and #131, were plated at 1 × 10^5 per well in a 96‐well plate format, treated for the indicated time, washed with 1 ml PBS, and then transferred into flow cytometry tubes, where they were fixed with freshly made 1% formaldehyde for 10 min at RT prior to analysis by flow cytometry. Results are presented as ΔMFI, where MFI obtained from parental Jurkat^Tat cells undergoing the same treated was subtracted from the MFI corresponding to each cell line; ΔMFI = (MFI compound‐treated cell line 131/11 − MFI compound‐treated WT Jurkat^Tat cells).

HIV reservoir = settings: cited from earlier work

Row | Compound | EC50 [3] | Supernatant HIV-1 mRNA ([2]; 30 μM, LOD 100 copies/ml) | other results
1 | CCCCCCCCCCCCCC(=O)O[C@@H]1[C@@H](C)[C@@]2(O)[C@@H](C=C(CO)C[C@]3(O)C(=O)C(C)=C[C@@H]23)[C@@H]2C(C)(C)[C@]12OC(C)=O [PMA, phorbol 12‐myristate 13‐acetate, reference compound] | – | – | cells producing dsRed expression upon stimulation [1]: ~ 40%; Supernatant HIV-1 mRNA ([2]; 50 nM, positive control): 308929.80 Copies/ml
2 | Cl.Nc1ccc(-c2ccc3ccccc3n2)cc1 [PH03, 2‐(4‐aminophenyl)quinoline hydrochloride] | 1250 nM | 4714.11 Copies/ml | –
3 | Cn1c(C=Cc2c[nH]c3ccccc23)nc2ccccc2c1=O [PH01, 2‐[2‐(1H‐indol‐3‐yl)vinyl]‐3‐methyl‐4(3H)‐quinazolinone] | 141 nM | 5348.04 Copies/ml | –
4 | O=C(CCCCCCC(=O)Nc1ccccc1)NO [Vorinostat, suberoylanilide hydroxamic acid] | – | – | reduction in the HIV reservoir (HIV reservoir; 400 mg daily for 14 days or 3 days a week for 8 weeks, ref Archin et al, 2014, Elliott et al): did not produce a reduction in the HIV reservoir
5 | Cc1cc(I)cnc1NC(=S)NC(=O)c1ccco1 [PH04, N‐{[(5‐iodo‐3‐methyl‐2‐pyridinyl)amino]carbonothioyl}‐2‐furamide] | 2560 nM | 7134.68 Copies/ml | –
6 | COc1ccccc1N(C=O)/C=C1\Sc2ccccc2C1=O [PH02b, (2-methoxyphenyl)[(3-oxo-1-benzothien-2(3H)-ylidene)methyl]formamide] | – | – | latency‐reversing activity of PH02 analogs compared with PH02 [3]: significant reduction
7 | COc1ccccc1N(/C=C1\Sc2ccccc2C1=O)C(C)=O [PH02a, N-(2-methoxyphenyl)-N-[(3-oxo-1-benzothien-2(3H)-ylidene)methyl]acetamide] | – | – | latency‐reversing activity of PH02 analogs compared with PH02 [3]: significant reduction
8 | Cc1[nH]c2ccccc2c1CCNCc1ccc(/C=C/C(=O)NO)cc1 [Panobinostat] | – | – | reduction in the HIV reservoir (HIV reservoir; 20 mg three times a week every other week for 8 weeks, ref Rasmussen et al, 2014): did not produce a reduction in the HIV reservoir
9 | COc1cccc(-n2nnc(C(=O)Nc3ccc(C)cc3)c2C)c1 [PH05, 1‐(3‐methoxyphenyl)‐5‐methyl‐N‐(4‐methylphenyl)‐1H‐1,2,3‐triazole‐4‐carboxamide] | 5900 nM | 587.19 Copies/ml | –
